In US20230174530A1, “N-(PHENYLAMINOCARBONYL) TETRAHYDRO-ISOQUINOLINES AND RELATED COMPOUNDS AS MODULATORS OF GPR65” (PATHIOS THERAPEUTICS LIMITED, priority 2020, published 2023) one finds IC50 data, which are given here for 35 compounds.

Some results are limits rather than exact numbers.

For this assay, the target named is T1, human recombinant GPR65 (Homo sapiens, UniProt Q8IYL9).
T1 construct: host or cells: 1321N1 human astrocytoma cells (1321N1-hrGPR65)
The experiment in a line: Human GPR65 cAMP HTRF antagonist assay. Format: cell-based. Conditions: 1321N1-hrGPR65 cells stimulated at assay pH 7.2; suppression of cAMP rise; read-out: hGPR65 IC50. In a few lines:
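1321N1 astrocytoma cells stably expressing human GPR65, 2,000 per well in KRH with 1 mM IBMX and 200 μM EDTA, preincubated 30 min with compound at RT. Acid stimulation at pH 7.2 for 30 min, pH 7.9 as control. cAMP read by HTRF 665/620 ratio; IC50 from normalised 4-parameter fit.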
On the technique in general: Time-resolved FRET reads energy transfer from a long-lived donor to a nearby acceptor.

T1 sequence (Q8IYL9 whole entry): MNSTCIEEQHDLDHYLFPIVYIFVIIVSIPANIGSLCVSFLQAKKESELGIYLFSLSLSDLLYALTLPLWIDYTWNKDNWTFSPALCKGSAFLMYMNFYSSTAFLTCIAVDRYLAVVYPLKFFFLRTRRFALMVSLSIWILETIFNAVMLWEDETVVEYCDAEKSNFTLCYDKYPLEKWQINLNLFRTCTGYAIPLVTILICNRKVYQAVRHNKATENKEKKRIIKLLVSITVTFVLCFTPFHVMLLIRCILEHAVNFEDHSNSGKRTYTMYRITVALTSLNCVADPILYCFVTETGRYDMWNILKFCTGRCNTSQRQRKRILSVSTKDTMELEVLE

For the compound `O=C(Nc1ccc(Cl)c(Cl)c1)N1CCc2cc(F)c(F)cc2C1` [Compound 106, N-(3,4-Dichlorophenyl)-6,7-difluoro-3,4-dihydroisoquinoline-2(1H)-carboxamide], the IC50 was below 0.5 µM.

On to `COc1cc2c(cn1)CCN(C(=O)Nc1ccc(C(F)(F)F)c(Cl)c1)C2` [Compound 107, N-(3-Chloro-4-(trifluoromethyl)phenyl)-7-methoxy-3,4-dihydro-2,6-naphthyridine-2(1H)-carboxamide], for which the IC50 was above 5 µM.

On to `O=C(Nc1ccc(C(F)(F)F)c(Cl)c1)N1CCc2cc(F)c(F)cc2C1` [Compound 108, N-(3-Chloro-4-(trifluoromethyl)phenyl)-6,7-difluoro-3,4-dihydroisoquinoline-2(1H)-carboxamide], for which the IC50 was below 0.5 µM.

As to `O=C(Nc1ccc(Cl)c(Cl)c1)N1CCc2cc3nncn3cc2C1` [Compound 109, N-(3,4-Dichlorophenyl)-8,9-dihydro-[1,2,4]triazolo[4,3-b][2,7]naphthyridine-7(6H)-carboxamide], the IC50 is below 0.5 µM.

In the case of `O=C(Nc1ccc(Cl)c(Cl)c1)N1CCc2cc3nccn3cc2C1` [Compound 110, N-(3,4-Dichlorophenyl)-8,9-dihydroimidazo[1,2-b][2,7]naphthyridine-7(6H)-carboxamide], the IC50 was above 5 µM.

With `O=C(Nc1ccc(Cl)c(Cl)c1)N1CCc2cc3ncnn3cc2C1` [Compound 111, N-(3,4-Dichlorophenyl)-8,9-dihydro-[1,2,4]triazolo[1,5-b][2,7]naphthyridine-7(6H)-carboxamide], the IC50 is above 5 µM.

Regarding `O=C(Nc1cc(Cl)c(Cl)cc1F)N1CCc2cc(=O)[nH]cc2C1` [Compound 112, N-(4,5-Dichloro-2-fluorophenyl)-6-oxo-3,4,6,7-tetrahydro-2,7-naphthyridine-2(1H)-carboxamide], the IC50 was below 0.5 µM.

Take `O=C(Nc1ccc(Cl)c(Cl)c1)N1CCc2cc3cncn3cc2C1` [Compound 113, N-(3,4-Dichlorophenyl)-8,9-dihydroimidazo[1,5-b][2,7]naphthyridine-7(6H)-carboxamide]: the IC50 is below 0.5 µM.

`COC(=O)c1ccc2c(c1)CCN(C(=O)Nc1ccc(Cl)c(Cl)c1)C2` [Compound 114, Methyl 2-((3,4-dichlorophenyl)carbamoyl)-1,2,3,4-tetrahydroisoquinoline-6-carboxylate]: the concentration for half-maximal inhibition (IC50) was below 0.5 µM.

Regarding `O=C(Nc1ccc(Cl)c(Cl)c1)N1CCc2cn3ccnc3cc2C1` [Compound 115, N-(3,4-Dichlorophenyl)-6,7-dihydroimidazo[1,2-b][2,6]naphthyridine-8(9H)-carboxamide], the IC50 is above 5 µM.

`O=C(Nc1ccc(Cl)c(Cl)c1)N1CCc2cn3cnnc3cc2C1` [Compound 116, N-(3,4-Dichlorophenyl)-6,7-dihydro-[1,2,4]triazolo[4,3-b][2,6]naphthyridine-8(9H)-carboxamide]: the 50% inhibitory concentration (IC50) was above 5 µM.

With `O=C(Nc1ccc(Cl)c(Cl)c1)N1CCc2cn3cncc3cc2C1` [Compound 117, N-(3,4-Dichlorophenyl)-6,7-dihydroimidazo[1,5-b][2,6]naphthyridine-8(9H)-carboxamide], the IC50 is below 0.5 µM.

On to `O=C(Nc1ccc(Cl)c(Cl)c1F)N1CCc2cc(=O)[nH]cc2C1` [Compound 118, N-(3,4-Dichloro-2-fluorophenyl)-6-oxo-3,4,6,7-tetrahydro-2,7-naphthyridine-2(1H)-carboxamide], for which the IC50 lay in the range of 0.5 to 5 µM.

Consider `Nc1nccc2c1CCN(C(=O)Nc1ccc(Cl)c(Cl)c1)C2` [Compound 119, 5-Amino-N-(3,4-dichlorophenyl)-3,4-dihydro-2,6-naphthyridine-2(1H)-carboxamide], for which the IC50 is above 5 µM.

For the compound `O=C(Nc1ccc(Cl)c(Cl)c1)N1CCc2c(ccnc2F)C1` [Compound 120, N-(3,4-Dichlorophenyl)-5-fluoro-3,4-dihydro-2,6-naphthyridine-2(1H)-carboxamide], the IC50 was below 0.5 µM.

Turning to `O=C(Nc1ccc(Cl)c(Cl)c1)N1CCc2cn3ncnc3cc2C1` [Compound 121, N-(3,4-Dichlorophenyl)-6,7-dihydro-[1,2,4]triazolo[1,5-b][2,6]naphthyridine-8(9H)-carboxamide], the IC50 is above 5 µM.

For the compound `Nc1ccc2c(n1)CCN(C(=O)Nc1ccc(Cl)c(Cl)c1)C2` [Compound 122, 2-Amino-N-(3,4-dichlorophenyl)-7,8-dihydro-1,6-naphthyridine-6(5H)-carboxamide], the IC50 is above 5 µM.

As for `O=C(Nc1ccc(Cl)c(Cl)c1)N1CCc2nc(F)ccc2C1` [Compound 123, N-(3,4-Dichlorophenyl)-2-fluoro-7,8-dihydro-1,6-naphthyridine-6(5H)-carboxamide], the IC50 is below 0.5 µM.

Regarding `CS(=O)(=O)c1ccc2c(c1)CCN(C(=O)Nc1ccc(C(F)(F)F)c(Cl)c1)C2` [Compound 124, N-(3-Chloro-4-(trifluoromethyl)phenyl)-6-(methylsulfonyl)-3,4-dihydroisoquinoline-2(1H)-carboxamide], the IC50 is above 5 µM.

On to `CS(=O)(=O)c1ccc2c(c1)CCN(C(=O)Nc1ccc(Cl)c(Cl)c1)C2` [Compound 125, N-(3,4-Dichlorophenyl)-6-(methylsulfonyl)-3,4-dihydroisoquinoline-2(1H)-carboxamide], for which the IC50 was above 5 µM.

On to `O=C(Nc1ccc(Cl)c(Cl)c1)N1CCc2cc(-c3cccnc3F)ccc2C1` [Compound 126, N-(3,4-Dichlorophenyl)-6-(2-fluoropyridin-3-yl)-3,4-dihydroisoquinoline-2(1H)-carboxamide], for which the IC50 lay in the range of 0.5 to 5 µM.

With `O=C(Nc1ccc(Cl)c(Cl)c1)N1CCc2cc(-c3cccs3)ccc2C1` [Compound 127, N-(3,4-Dichlorophenyl)-6-(thiophen-2-yl)-3,4-dihydroisoquinoline-2(1H)-carboxamide], the IC50 was above 5 µM.

Take `O=C(Nc1ccc(Cl)c(Cl)c1)N1CCc2cc(-c3ccsc3)ccc2C1` [Compound 128, N-(3,4-Dichlorophenyl)-6-(thiophen-3-yl)-3,4-dihydroisoquinoline-2(1H)-carboxamide]: the IC50 is above 5 µM.

With `COC(=O)c1cc2c(cn1)CN(C(=O)Nc1ccc(C(F)(F)F)c(Cl)c1)CC2` [Compound 129, Methyl 7-((3-chloro-4-(trifluoromethyl)phenyl)carbamoyl)-5,6,7,8-tetrahydro-2,7-naphthyridine-3-carboxylate], the IC50 fell in the range of 0.5 to 5 µM.

Turning to `O=C(Nc1cc(Cl)c(Cl)cc1C(F)(F)F)N1CCc2cc(=O)[nH]cc2C1` [Compound 130, N-(4,5-Dichloro-2-(trifluoromethyl)phenyl)-6-oxo-3,4,6,7-tetrahydro-2,7-naphthyridine-2(1H)-carboxamide], the IC50 is above 5 µM.

For the compound `COC(=O)c1ccc2c(c1)CN(C(=O)Nc1ccc(Cl)c(Cl)c1)CC2` [Compound 131, Methyl 2-((3,4-dichlorophenyl)carbamoyl)-1,2,3,4-tetrahydroisoquinoline-7-carboxylate], the IC50 was 0.5 to 5 µM.

As for `N#Cc1cccc2c1CN(C(=O)Nc1ccc(C(F)(F)F)c(Cl)c1)CC2` [Compound 132, N-(3-Chloro-4-(trifluoromethyl)phenyl)-8-cyano-3,4-dihydroisoquinoline-2(1H)-carboxamide], the IC50 lay in the range of 0.5 to 5 µM.

On to `COc1cccc2c1CCN(C(=O)Nc1ccc(Cl)c(C(F)(F)F)c1)C2` [Compound 133, N-(4-Chloro-3-(trifluoromethyl)phenyl)-5-methoxy-3,4-dihydroisoquinoline-2(1H)-carboxamide], for which the IC50 lay in the range of 0.5 to 5 µM.

As for `COc1cccc2c1CCN(C(=O)Nc1ccc(C(F)(F)F)c(Cl)c1)C2` [Compound 134, N-(3-Chloro-4-(trifluoromethyl)phenyl)-5-methoxy-3,4-dihydroisoquinoline-2(1H)-carboxamide], the IC50 fell in the range of 0.5 to 5 µM.

Consider `Cc1ccc2c(c1)CCN(C(=O)Nc1ccc(Cl)c(Cl)c1)C2` [Compound 135, N-(3,4-Dichlorophenyl)-6-methyl-3,4-dihydroisoquinoline-2(1H)-carboxamide], for which the IC50 is 0.5 to 5 µM.

On to `Cc1ccc2c(c1)CCN(C(=O)Nc1ccc(C(F)(F)F)c(Cl)c1)C2` [Compound 136, N-(3-Chloro-4-(trifluoromethyl)phenyl)-6-methyl-3,4-dihydroisoquinoline-2(1H)-carboxamide], for which the IC50 lay in the range of 0.5 to 5 µM.

With `N#Cc1cccc2c1CCN(C(=O)Nc1ccc(Cl)c(C(F)(F)F)c1)C2` [Compound 137, N-(4-Chloro-3-(trifluoromethyl)phenyl)-5-cyano-3,4-dihydroisoquinoline-2(1H)-carboxamide], the IC50 is 0.5 to 5 µM.

On to `O=C(Nc1ccc(Cl)c(Cl)c1)N1CCc2ccc(Cl)cc2C1` [Compound 138, 7-Chloro-N-(3,4-dichlorophenyl)-3,4-dihydroisoquinoline-2(1H)-carboxamide], for which the IC50 lay within 0.5 to 5 µM.

Regarding `O=C(Nc1ccc(Cl)c(Cl)c1)N1CCc2cccc(Cl)c2C1` [Compound 139, 8-Chloro-N-(3,4-dichlorophenyl)-3,4-dihydroisoquinoline-2(1H)-carboxamide], the IC50 lay in the range of 0.5 to 5 µM.

Consider `Cc1noc(-c2ccc3c(c2)CCN(C(=O)Nc2ccc(Cl)c(Cl)c2)C3)n1` [Compound 140, N-(3,4-Dichlorophenyl)-6-(3-methyl-1,2,4-oxadiazol-5-yl)-3,4-dihydroisoquinoline-2(1H)-carboxamide], for which the IC50 was below 0.5 µM.

Usually IC50 stands for the midpoint of a concentration-inhibition curve.
